PMC4552634, “A New Set of Chemical Starting Points with Plasmodium falciparum Transmission-Blocking Potential for Antimalarial Drug Discovery” (PLoS ONE, 2015)
Where two headings read alike, the source gives them in different places.

Experiments:
[1] = test system: luciferase reaction (BacTiter-Glo); experiment: Interference assay (inhibition of the BacTiter-Glo luciferase reaction); assay type: biochemical; set-up: concentration or dose not given beside the values; conditions: ATP interference assay
Experimental: To discard possible false-positive results, we performed an interference assay in parallel. […] […]. The ATP solution was made by dissolving ATP powder (ATP standard from the ATPlite 1 step assay kit, reference 6016731, Perkin Elmer) in culture medium. The positive control used was the Luciferase Inhibitor I Calbiochem (Merck, 119113) at 100 μM.

[2] = test system: P. falciparum stage V gametocytes; experiment: microbe, parasite or virus in culture; set-up: BacTiter-Glo ATP luminescence viability of purified stage V gametocytes in 384-well plates, per cent inhibition versus DMSO; conditions: Plasmodium falciparum, 48 h, read-out: % Inhibition
[3] = test system: P. falciparum stage V gametocytes; experiment: Gametocytocidal ATP bioluminescence assay (single point 5 μM and 1 μM, dose-response); assay type: cell-based, Plasmodium falciparum; conditions: for Ratio IC50 HepG2/IC50 P. falciparum: IC50 HepG2 divided by IC50 P. falciparum gametocytes; for IC90: ATP assay, Fig 7, read-out: IC90 against gametocytes
[4] = test system: P. falciparum asexual stages; conditions: TCAMS data, cited from earlier work
HepG2 cells = experiment: Cytotoxicity in HepG2 cells (intracellular ATP, ATPlite, 48 h); assay type: cell-based, human; conditions: IC50 HepG2 divided by IC50 P. falciparum gametocytes
[5] = as above; assay type: cell-based, human; conditions: human, HepG2 cells
[6] = test system: P. falciparum NF54 gametocytes fed to An. stephensi mosquitoes; experiment: Standard membrane feeding assay (SMFA); assay type: in vivo, Plasmodium falciparum; conditions: for Infection Prevalence (%): An. stephensi fed gametocytes treated 48 h at the IC90, Fig 6, one of two independent experiments, control 94%; for % Prevalence of infection / % Reduction oocysts SMFA / Block in Transmission (%) / Reduction in Oocyst (%): gametocytes treated 48 h at the IC90; for % Prevalence of infection / % Reduction oocysts SMFA: Fig 7; for Block in Transmission (%) / Reduction in Oocyst (%): normalized to DMSO control, Fig 6; for Reduction in Oocyst (%): mean oocyst intensity
Experimental: Gametocyte cultures of the P. falciparum NF54 strain, kindly provided by Robert Sinden (Imperial College London), were induced at 0.5% asexual parasitemia and 4% hematocrit (RBCs from the Spanish Red Cross) at 40 mL final volume in T75 flasks. Gametocyte production media comprised RPMI 1640 (Sigma, #R5886), 30 mM bicarbonate (Sigma-Aldrich, #S5761) and 5 mM hypoxanthine (Gibco, #11067–030). Media were made complete with 5% human serum A^+ (Interstate Blood Bank, USA) and 5% AlbuMAX II (Gibco, #11021–037). Cultures were maintained in a gassed incubator at 37°C with 5% CO2, 5% O2, 90% N2 for 14–17 days post-induction, with daily medium replacement without the addition of fresh RBCs. Percentages of mature gametocytes were assessed by microscopic counts (Leica, DM2000) of Giemsa-stained thin blood smears, and functional microgametocytes were assessed for exflagellation activity at room temperature. To test exflagellation, mature gametocyte cultures were centrifuged at 1800 rpm for one minute. The infected RBC pellet was gently mixed with an equal volume of pre-warmed human serum and introduced onto a slide with a coverslip, followed by incubation at room temperature for 10–15 min. The average exflagellation centers per field at 10X magnification was determined by the exflagellation assay described above. Gametocyte counts and exflagellation assays were performed both before and after gametocyte drug treatment (at the time of SMFA).
Two days before gametocyte treatment with compound, spent media was removed and fresh Gametocyte Treatment Medium consisting of RPMI1640 with L-glutamine and 25 mM HEPES (Gibco, #13018–031), 10 mM glucose (Sigma-Aldrich, #G8270), 20 mM bicarbonate (Sigma-Aldrich, #S5761) and 5 mM hypoxanthine (Gibco, #11067) was added. Media were made complete with 10% of human A^+ serum (Interstate Blood Bank). Five ml of mature gametocyte culture at day 15 post-induction was transferred into each well of a pre-warmed 6-well plate. The selected TCAMS compounds were prepared fresh as a stock solution of 10 mM in 100% of DMSO and added to the mature gametocytes at the concentrations described in Fig 7. Gametocytes were exposed to the compound for a total duration of 48 h. At 24 h post-drug exposure, a fixed volume (3 mL) of spent medium was removed and fresh medium was re-added, accompanied by compound replenishment to obtain the required final concentration. Untreated gametocytes with the same final concentration of DMSO (0.1%) as in treated gametocytes were processed in parallel.
On the day of the feed, cultures were centrifuged at 2500 g for 3 min at 37°C, diluted 1:1 with 100% packed cell volume of fresh RBCs, and finally formulated as artificial mosquito blood meals at 50% hematocrit with pre-warmed human serum. All steps were performed at 37°C. Prepared blood meals were fed in duplicate to 4–6 days old female An. stephensi mosquitoes for 30–40 min via Parafilm membrane attached to glass feeders (Fisher Scientific, #12831283) connected to a 37°C circulating water bath. Fed mosquitoes were maintained in an incubator at 27°C and 75% relative humidity with 12 h light/dark cycles. At 7–8 days post-feeding, mosquitoes with fully developed ovaries were dissected for midguts (Leica, M80) and incubated in 0.2% mercurochrome solution in distilled water for 10–15 min. The total number of oocysts in individual midguts was counted using a light microscope (Leica, DM2000) under a 10X objective (100X magnification). Both infection prevalence (percentage of mosquitoes with one or more oocysts) and mean oocyst intensity of infection were defined in each treatment. The percentage block in transmission and the percentage reduction in mean oocyst intensity were calculated after normalizing to the Control DMSO-treated sample.

[7] = test system: mature P. falciparum NF54 gametocytes (male gametocyte exflagellation); experiment: Exflagellation assay; assay type: cell-based, Plasmodium falciparum; conditions: for % Exflagellation inh. at the IC90: 48 h, concentration = IC90, Fig 7; for % Inhibition exflagellation: 48 h post-treatment at the IC90 of the ATP assay, normalized to control, Fig 6
Experimental: The exflagellation assay was performed as described by Delves et al., with some modifications. Briefly, 200 μL samples of mature P. falciparum NF54 gametocytes culture in the presence of the corresponding test compound were incubated at 37°C for 48 h in an atmosphere of 5% CO2, 5% O2, 90% N2 in 1.5 mL microfuge tubes. After the incubation period, cells were settled down and medium was carefully removed. The cell pellets were resuspended in 15 μl of complete ookinete medium (RPMI medium with 25 mM HEPES, 50 mg/L hypoxanthine, 2 g/L sodium bicarbonate, 100 μM xanthurenic acid, 20% human serum) pre-warmed at 37°C. Once parasites were resuspended in ookinete medium, they were introduced in a chamber of a FastRead disposable hemocytometer slide and placed on a horizontal surface at room temperature (21°C), to allow cells to homogeneously settle, forming a tight monolayer.

[8] = Plasmodium falciparum, P. falciparum gametocytes, average, read-out: IC50 Pf Gametocytes average, IC50 (µM) average
[9] = Plasmodium falciparum, sexual stages (gametocytes), dose-response, read-out: IC50 sexual
[10] = P. falciparum asexual stages, read-out: IC50 (µM) Pf asexual stages
[11] = asexual stages, read-out: IC50 asexual
[12] = HepG2, 48 h exposure, intracellular ATP, read-out: IC50 (μM) Cytotoxicity HepG2
[13] = IC50 per ratio column head, unit inferred, read-out: Cytotoxicity in HepG2
[14] = sexual stages (gametocytes), dose-response, read-out: IC50 sexual

| Structure (SMILES) | % Control luminiscence [1] [%] | inhibition at 5 µM [2] [%] | Ratio IC50 HepG2/IC50 P. falciparum [3] | IC50 [3, 8] [µM] | IC50 [3, 9] [µM] | IC50 [4, 10] [µM] | IC50 [4, 11] [µM] | Ratio IC50 HepG2/IC50 P. falciparum (HepG2 cells) | IC50 at 48 h [5, 12] [µM] | IC50 at 48 h [5, 13] [µM] | IC90 ([3]; Plasmodium falciparum) [nM] | Infection Prevalence (%) [6] [%] | % Prevalence of infection [6] [%] | % Reduction oocysts SMFA [6] [%] | Block in Transmission (%) [6] [%] | Reduction in Oocyst (%) [6] [%] | % Exflagellation inh. at the IC90 [7] [%] | % Inhibition exflagellation [7] [%] | IC50 [3, 14] [µM] |
| --- | --- | --- | --- | --- | --- | --- | --- | --- | --- | --- | --- | --- | --- | --- | --- | --- | --- | --- | --- |
| O=c1c(Br)ccccc1Br [TCMDC-142246] | 100 | 103 | 61 | 0.21 | 0.207 | 0.79 | 0.795 | 61 | 13 | 12.6 |  |  |  |  |  |  |  |  |  |
| CNC(=S)NN=C(C)c1ccccn1 [TCMDC-123475] |  |  |  | 1.17 |  | 0.27 | 0.272 |  |  | > 25 | 10000 | 0 | 0 | 100 | 100 | 100 | 97.7 | 97.7 |  |
| Cc1c(Cl)cccc1NC(=S)NN=Cc1ccccn1 [TCMDC-125487] |  |  |  | 0.27 |  | 0.6 | 0.603 |  |  | > 25 | 2000 | 0 | 1 | 100 | 100 | 100 | 98.3 | 98.30 |  |
| CCC1CN2CCc3cc(OC)c(OC)cc3C2CC1CC1NCCc2cc(OC)c(OC)cc21 (stereo not shown) [TCMDC-125849] |  |  |  |  | 0.117 | 0.14 | 0.145 |  | 18 | 17.7 | 2000 | 3 | 3 | 100 | 97 | 100 | 99.2 |  |  |
| Cc1ccc(C)c(CC(=O)N2CCC(n3c(C)nc4ccc(F)cc43)CC2)c1 [TCMDC-124790] | 100 |  | >27 | 0.92 | 0.923 | 0.19 | 0.193 | >27 |  | > 25 |  |  |  |  |  |  |  |  |  |
| CN(C)CCCNc1nccc(N(C)c2ccc(NC(=O)Nc3cc(C(F)(F)F)ccc3F)cc2)n1 [TCMDC-141633] | 100 |  | 17 | 1 |  |  | 0.98 | 17 |  | 17.3 |  |  |  |  |  |  |  |  | 0.997 |
| Cc1cc(Nc2ccncc2)n2nc(C)c(-c3ccc(Cl)cc3)c2n1 [TCMDC-124478] | 100 |  | >55 | 0.91 | 0.913 | 0.16 | 0.157 | >55 | > 25 | > 50 |  |  |  |  |  |  |  |  |  |
| CCc1nn2c(Nc3ccncc3)cc(C)nc2c1-c1ccccc1 [TCMDC-124917] | 93 |  | >13 | 1.9 | 1.9 | 0.2 | 0.203 | >13 |  | > 25 |  |  |  |  |  |  |  |  |  |
| COc1cc2nc(N3CCC(CCCC4CCNCC4)CC3)nc(NCc3ccccn3)c2cc1OC [TCMDC-138494] | 100 |  | 26 | 0.4 |  |  | 0.757 | 26 |  | 10.6 |  |  |  |  |  |  |  |  |  |

Further lines, with some results ahead:

| % Control luminiscence [1] [%] | Structure (SMILES) | inhibition at 5 µM [2] [%] | Ratio IC50 HepG2/IC50 P. falciparum [3] | IC50 [3, 8] [µM] | IC50 [3, 9] [µM] | IC50 [4, 10] [µM] | IC50 [4, 11] [µM] | Ratio IC50 HepG2/IC50 P. falciparum (HepG2 cells) | IC50 at 48 h [5, 12] [µM] | IC50 at 48 h [5, 13] [µM] | IC90 ([3]; Plasmodium falciparum) [nM] | Infection Prevalence (%) [6] [%] | % Prevalence of infection [6] [%] | % Reduction oocysts SMFA [6] [%] | Block in Transmission (%) [6] [%] | Reduction in Oocyst (%) [6] [%] | % Exflagellation inh. at the IC90 [7] [%] | % Inhibition exflagellation [7] [%] | IC50 [3, 14] [µM] |
| --- | --- | --- | --- | --- | --- | --- | --- | --- | --- | --- | --- | --- | --- | --- | --- | --- | --- | --- | --- |
| 100 | Fc1ccc2[nH]c(-c3cccc(-c4ccc(CNCCN5CCNCC5)cc4)c3)nc2c1 [TCMDC-132863] |  | 17 | 1.45 | 1.45 | 0.9 | 0.904 | 17 | 24 | 24.2 |  |  |  |  |  |  |  |  |  |
| 99 | COc1ccc(CNCc2ccc(F)cc2)cc1-c1ccc(OC)c(S(=O)(=O)NCCN2CCCC2)c1 [TCMDC-132295] |  | 16 | 0.72 |  |  | 0.786 | 16 |  | 11.4 |  |  |  |  |  |  |  |  | 0.717 |
| 100 | CN(C)CCNC(=O)c1ccc(-c2cnc3ccc(NCc4ccc(Cl)c(Cl)c4)nn23)cc1 [TCMDC-136678] |  | 50 | 0.33 | 0.333 | 0.91 | 0.913 | 50 | 17 | 16.7 |  |  |  |  |  |  |  |  |  |
| 100 | CC(C)CNCc1cccc(-c2ccc(CN(CCCN3CCN(C)CC3)C(=O)CCC3CCCC3)cc2)c1 [TCMDC-140558] |  | >36 | 0.7 |  |  | 0.877 | >36 |  | > 25 |  |  |  |  |  |  |  |  |  |
| 100 | Fc1ccc2[nH]c(-c3cccc(-c4cccc(CNCCN5CCNCC5)c4)c3)nc2c1 [TCMDC-132860] |  | 27 | 0.74 | 0.737 | 0.84 | 0.842 | 27 | 20 | 19.6 |  |  |  |  |  |  |  |  |  |
